In US7029846B2, “Site-specific protein modification” (University of Medicine and Dentistry of New Jersey, priority 2000, dated 2006):
Starred links: 1 amine or outer side, 2 acyl side, 3 side chain; linkers in the order of their positions; H or OH if unused. Non-standard residues stand in square brackets, D forms with d. No end group written: not given here. Tyr(3-Ac) = 3-acetyl-tyrosine, CC(=O)c1cc(C[C@H](N[*:1])C(=O)[*:2])ccc1O[*:3]

Target: rhodamine labeled TAR RNA (TAR-Rh)
Test: FRET fluorescence quenching titration of fluorescein labeled Tat peptide with rhodamine labeled TAR RNA
Format: binding, HIV-1
Settings: quenching of Tat-Fl (5 nM) emission at 512 nm with increasing TAR-Rh, 50 mM Tris-HCl, pH 7.4 at 25° C., 20 mM KCl, fit to quadratic equation (1), read-out: dissociation constant (KD)
Experimental: FIG. 2(B). Fluorescence intensity of Tat-Fl (5 nM) at 512 nm in the presence of increasing TAR-Rh concentrations. The solid line represents the best fits of the data by nonlinear regression to quadratic equation (1). The fluorescence measurements were performed on PTI fluorescence spectrophotometer controlled by Felix software. The excitation wavelength was 492 nm and slits width was set 3.5 nm for both excitation and emission. All samples were corrected for the light source excitation effect and for the background intensity of buffer fluorescence as well as for dilution factors. Buffer conditions: […] Tris-HCl, pH 7.4 at 25° C., 20 mM KCl.
To determine the binding affinities of a Tat peptide under physiological conditions and test the application of acetyl-Tyr, we developed a fluorescence resonance energy transfer (FRET) system containing TAR RNA and a Tat peptide uniquely labeled with donor and acceptor dye molecules (FIG. 1). […] (Clegg, R. M. (1992) Fluorescence resonance energy transfer and nucleic acids, Methods Enzymol. 211, 353–88; Yang, M., and Millar, D. P. (1997) Fluorescence resonance energy transfer as a probe of DNA structure and function, Methods Enzymol. 278, 417–444). The donor's lifetime and quantum yield are reduced upon energy transfer, and the acceptor fluorescence is increased, or sensitized. […]

For “Acetyl-Tyr-Tat peptide: HIV-1 Tat peptide (amino acids 47–56) with Tyr-47 replaced by 3-Acetyl-Tyrosine ([Tyr(3-Ac)]GRKKRRQRR)”, the Kd was 1 ± 0.5 nM.
